Laboratory results published in PubChem BioAssay (NCI).
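Exposure lasted 48 hours, with cells grown in 96-well plates and compounds tested at five concentrations. At the GI50, growth is halved. TGI is the concentration that stops growth completely.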

Key:
Assay in all cases: DTP human tumour cell line panel, 48 h
A498 renal = test system: A498 renal
HOP-62 NSCLC = test system: HOP-62 NSCLC
MDA-MB-231 breast = test system: MDA-MB-231 breast
NCI-H522 lung = test system: NCI-H522 lung
OVCAR-3 ovarian = test system: OVCAR-3 ovarian
SK-OV-3 ovarian = test system: SK-OV-3 ovarian
T-47D breast = test system: T-47D breast
UO-31 renal = test system: UO-31 renal

Row | SMILES | GI50 (A498 renal) | TGI (A498 renal) | GI50 (HOP-62 NSCLC) | TGI (HOP-62 NSCLC) | GI50 (MDA-MB-231 breast) | TGI (MDA-MB-231 breast) | GI50 (NCI-H522 lung) | TGI (NCI-H522 lung) | GI50 (OVCAR-3 ovarian) | TGI (OVCAR-3 ovarian) | GI50 (SK-OV-3 ovarian) | TGI (SK-OV-3 ovarian) | GI50 (T-47D breast) | TGI (T-47D breast) | GI50 (UO-31 renal) | TGI (UO-31 renal)
1 | C[C@]12CC[C@@H]3c4cc(OC(F)F)c(OS(N)(=O)=O)cc4CC[C@H]3[C@@H]1CC[C@@H]2O | 0.199 µM | 0.86 µM | 0.592 µM | 27.3 µM | 1.62 µM | 15.5 µM | 0.274 µM | 14.8 µM | 0.39 µM | 11.1 µM | 0.683 µM | 76.9 µM | 0.445 µM | 43.2 µM | 0.769 µM | 26.6 µM
2 | Oc1cccc2ccc(N/N=C/c3cc(CN4CCOCC4)c(O)c4ncccc34)nc12 | 0.376 µM | 4.06 µM | 0.0281 µM | 1.44 µM | 0.0441 µM | 2.25 µM | < 0.0165 µM | 1.48 µM | 0.0392 µM | 2.09 µM | 0.0272 µM | 0.368 µM | 0.0274 µM | 0.682 µM | 0.0124 µM | 1.24 µM
3 | COc1ccc(-c2nc(/C=C3\SC(=NCc4ccccc4)NC3=O)c3ccccn23)cc1 | 1.51 µM | 6.56 µM | 1.54 µM | 3 µM | 1.01 µM | 3.84 µM | 0.79 µM | 7.16 µM | 1.04 µM | 2.46 µM | 2.05 µM | 4.28 µM | 1.26 µM | 3.11 µM | 1.49 µM | 3 µM
4 | CC1(C)CC(=O)C2=C(C1)OC(N)=C(c1nc(-c3ccccc3)cs1)C2c1ccc(Br)cc1 (stereo not given) | 66.6 µg/mL | > 150 µg/mL | 54.4 µg/mL | > 150 µg/mL | 59.1 µg/mL | > 150 µg/mL | 42.1 µg/mL | > 150 µg/mL | 59.7 µg/mL | > 150 µg/mL | 102 µg/mL | > 150 µg/mL | 44.6 µg/mL | > 150 µg/mL |  | 
5 | CN(CCNCc1ccccn1)CCNCc1ccccn1 | 1.8 µM | 3.27 µM | 3.85 µM | 22.6 µM | 2.56 µM | 5.93 µM |  |  | 2.09 µM | 4.27 µM | 2.24 µM | 5.27 µM | 3.43 µM | 28 µM | 1.73 µM | 3.9 µM
6 | COc1ncnc(NS(=O)(=O)c2ccc(N=C3C(=O)N(CN4CCN(c5c(F)cc6c(=O)c(C(=O)O)cn(C7CC7)c6c5OC)CC4C)c4ccc(Br)cc43)cc2)c1OC (stereo not given) | 11.3 µM | > 50 µM |  |  | 9.42 µM | 25.4 µM | 31 µM | > 50 µM | 7.52 µM | 40.7 µM |  |  |  |  | > 50 µM | > 50 µM
7 | N#CC1=C(/N=C/c2ccccc2)Oc2c(ccc3ccccc23)C1c1ccccc1 (stereo not given) | 0.191 µM | 0.747 µM | 0.646 µM | > 100 µM | 1.31 µM | 20.5 µM | 0.298 µM |  | 0.341 µM | 2.3 µM | 0.534 µM | > 100 µM |  |  | 0.452 µM | > 100 µM
8 | COc1cc2c(cc1OC)-c1ncc3c(OC)c(OC)c(OC)cc3c1C2 |  |  | 16 µM | 29.4 µM | 0.404 µM | 11.6 µM |  |  | 0.529 µM | 9.91 µM | 18.9 µM | 43.2 µM | 40.8 µM | > 100 µM | 3.41 µM | 15.7 µM
9 | COc1ccc(N(CC(=O)NCCC[Te]c2ccccc2)C(=O)CNC(=O)OC(C)(C)C)cc1 | 2.28 µM | 5.35 µM | 2.19 µM | 4.73 µM |  |  | 2.56 µM | 10.6 µM | 3 µM | 7.88 µM | 2.34 µM | 4.83 µM | 11 µM | 40.9 µM | 2.38 µM | 9.04 µM
10 | COc1ccc(NC(=O)C2CCC(CNS(=O)(=O)c3ccccc3)CC2)cc1OC (stereo not given) | > 100 µM | > 100 µM | 26.8 µM | 86.8 µM | 35.3 µM | > 100 µM | 60.9 µM | > 100 µM | > 100 µM | > 100 µM |  |  |  |  | > 100 µM | > 100 µM
11 | C/C(=C\c1cnc(C)s1)[C@@H]1C[C@@H]2O[C@@H]2CCC[C@H](C)[C@H](O)[C@@H](C)C(=O)C(C)(C)[C@@H](O)CC(=O)O1 |  |  | < 0.0127 µM | > 100 µM | < 0.0148 µM | > 100 µM |  |  | < 0.01 µM | > 100 µM | < 0.0125 µM | > 100 µM | 0.0171 µM | > 100 µM | < 0.0105 µM | > 100 µM
12 | COC1C(O)C(CO)OC(OC2C(O)COC(OC3C(C)OC(OC4C(O[C@H]5CC[C@@]6(C)C(CC=C7[C@H]6CCC68C(=O)O[C@@](C)(CCCC(C)C)[C@H]6[C@@H](OC(C)=O)C[C@@]78C)C5(C)C)OCC(OS(=O)(=O)O)C4O)C(OC4OCC(O)C(O)C4O)C3O)C2O)C1O (stereo not given in full) | 0.324 µM | 0.821 µM |  |  | 0.103 µM | 0.325 µM | 0.194 µM | 0.497 µM | 0.181 µM |  |  |  | 0.2 µM | 0.529 µM | 0.2 µM | 0.746 µM
